Results as given in ChEMBL document CHEMBL1130848, “Synthesis and preliminary evaluation of (S)-2-(4'-carboxycubyl)glycine, a new selective mGluR1 antagonist” (Bioorg Med Chem Lett, 1998).

Assays:
[1] = target: Metabotropic glutamate receptor 1 (Homo sapiens, UniProt Q13255); test: Inhibitory activity against mGluR1 receptor
[2] = target: Metabotropic glutamate receptor 2 (Homo sapiens, UniProt Q14416); test: Concentration required to inhibit mGluR2 receptor
Sequence of Metabotropic glutamate receptor 2 (Q14416 whole entry): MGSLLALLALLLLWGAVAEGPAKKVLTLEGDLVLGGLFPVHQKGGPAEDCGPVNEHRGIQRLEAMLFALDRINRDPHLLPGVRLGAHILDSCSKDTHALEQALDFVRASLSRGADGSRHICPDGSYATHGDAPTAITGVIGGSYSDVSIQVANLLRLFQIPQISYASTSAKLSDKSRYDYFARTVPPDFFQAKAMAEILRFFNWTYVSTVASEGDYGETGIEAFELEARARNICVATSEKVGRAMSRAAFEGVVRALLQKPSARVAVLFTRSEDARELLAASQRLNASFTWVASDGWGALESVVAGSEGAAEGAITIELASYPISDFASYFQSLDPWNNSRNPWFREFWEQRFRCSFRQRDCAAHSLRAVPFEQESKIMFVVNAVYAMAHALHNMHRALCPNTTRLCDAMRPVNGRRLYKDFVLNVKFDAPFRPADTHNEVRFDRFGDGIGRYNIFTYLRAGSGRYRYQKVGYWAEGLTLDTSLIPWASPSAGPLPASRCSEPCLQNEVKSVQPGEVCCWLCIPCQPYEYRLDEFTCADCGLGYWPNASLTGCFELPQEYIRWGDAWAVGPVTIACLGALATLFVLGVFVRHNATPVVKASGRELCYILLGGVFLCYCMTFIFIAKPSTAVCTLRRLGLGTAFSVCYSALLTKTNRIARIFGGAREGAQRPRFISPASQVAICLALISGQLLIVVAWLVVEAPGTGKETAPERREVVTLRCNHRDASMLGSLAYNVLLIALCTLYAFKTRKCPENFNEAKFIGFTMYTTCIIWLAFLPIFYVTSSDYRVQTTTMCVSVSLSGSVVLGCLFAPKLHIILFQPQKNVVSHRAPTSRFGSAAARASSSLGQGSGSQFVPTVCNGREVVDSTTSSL

Sequence of Metabotropic glutamate receptor 1 (Q13255 whole entry): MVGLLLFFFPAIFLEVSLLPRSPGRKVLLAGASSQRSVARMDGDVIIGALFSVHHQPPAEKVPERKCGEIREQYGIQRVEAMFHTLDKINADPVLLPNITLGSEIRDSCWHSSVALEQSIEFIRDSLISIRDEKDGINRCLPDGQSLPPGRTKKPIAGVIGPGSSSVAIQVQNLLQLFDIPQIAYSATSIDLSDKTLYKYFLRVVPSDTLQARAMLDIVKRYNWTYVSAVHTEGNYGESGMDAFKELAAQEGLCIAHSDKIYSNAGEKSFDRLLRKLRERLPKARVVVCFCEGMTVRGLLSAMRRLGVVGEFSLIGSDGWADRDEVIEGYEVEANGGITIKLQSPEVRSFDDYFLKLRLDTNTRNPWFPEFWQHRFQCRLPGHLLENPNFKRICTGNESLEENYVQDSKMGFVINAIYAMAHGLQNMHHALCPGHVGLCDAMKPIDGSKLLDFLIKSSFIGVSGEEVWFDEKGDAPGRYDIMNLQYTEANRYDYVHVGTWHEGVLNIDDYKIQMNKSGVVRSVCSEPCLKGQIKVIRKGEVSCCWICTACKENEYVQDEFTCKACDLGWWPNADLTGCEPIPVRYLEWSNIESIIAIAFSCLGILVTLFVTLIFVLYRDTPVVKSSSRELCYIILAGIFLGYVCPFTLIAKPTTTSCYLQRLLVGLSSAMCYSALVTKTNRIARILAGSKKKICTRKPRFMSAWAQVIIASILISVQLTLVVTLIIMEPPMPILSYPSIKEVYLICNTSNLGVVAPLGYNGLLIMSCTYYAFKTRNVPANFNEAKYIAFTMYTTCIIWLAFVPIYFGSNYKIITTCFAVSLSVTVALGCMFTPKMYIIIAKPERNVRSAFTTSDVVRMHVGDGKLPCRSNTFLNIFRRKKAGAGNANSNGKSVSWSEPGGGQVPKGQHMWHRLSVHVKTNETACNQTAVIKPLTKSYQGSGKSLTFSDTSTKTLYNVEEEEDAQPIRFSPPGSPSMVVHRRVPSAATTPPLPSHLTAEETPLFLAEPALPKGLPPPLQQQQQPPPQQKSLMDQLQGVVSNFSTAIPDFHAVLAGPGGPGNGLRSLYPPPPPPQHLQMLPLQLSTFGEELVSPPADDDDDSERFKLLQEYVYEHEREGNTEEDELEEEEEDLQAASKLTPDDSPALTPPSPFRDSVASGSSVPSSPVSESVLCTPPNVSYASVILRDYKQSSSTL

N[C@H](C(=O)O)C12C3C4C1C1C2C3C41C(=O)O (some centres not stated)
IC50 [1]: 232 µM
EC50 [2]: 54.9 µM
